Data as given in patent US20230085307A1, “PYRIDAZINONE COMPOUND AND HERBICIDE” (NISSAN CHEMICAL CORPORATION, priority 2019, published 2023).

How the values were obtained:
Italian ryegrass [1] = experiment: Test Example 4: herbicidal effect by soil treatment (Table 19, symbol K); format: in vivo, Italian ryegrass (Lolium multiflorum)
Outline: (§1)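 Step 1: sow seeds in sterilized diluvial soil, cover ~1.5 cm. Step 2: spray diluted emulsion onto soil surface at predetermined rate. Step 3: greenhouse, 25–30° C, three weeks. Step 4: grade effect on each plant by earlier criteria.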

green foxtail [2] = experiment: Test Example 4: herbicidal effect by soil treatment (Table 19, symbol G); format: in vivo, green foxtail (Setaria viridis)
Outline: as §1

blackgrass [3] = experiment: Test Example 5: herbicidal effect by foliage application, plastic box (Table 20, symbol J); format: in vivo, blackgrass (Alopecurus myosuroides); conditions: foliage application
Outline: (§2)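 Foliar spray test: emulsion formulation diluted in water to a set application rate, sprayed onto 14-day-old plants raised in diluvial soil at 25° C to 30° C under glass. Both herbicidal effect and crop effect rated visually three weeks later.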

rice flat sedge = experiment: Test Example 3: herbicidal effect by foliage application, Wagner pot (Table 18, symbol E); format: in vivo, rice flat sedge (Cyperus iria); conditions: 320 g/ha
Outline: (§3)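 Plants were sown in alluvial soil held under 0.1–0.5 cm standing water and grown 14 days in a greenhouse at 25–30 °C. An emulsifiable formulation, water-diluted to the set dose, was then sprayed onto the foliage, and effects were scored three weeks later using previously defined criteria.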

windgrass [4] = experiment: Test Example 4: herbicidal effect by soil treatment (Table 19, symbol L); format: in vivo, windgrass (Apera spica-venti)
Outline: as §1

lambsquarters [5] = experiment: Test Example 5: herbicidal effect by foliage application, plastic box (Table 20, symbol O); format: in vivo, lambsquarters (Chenopodium album); conditions: foliage application
Outline: as §2

lambsquarters [6] = experiment: Test Example 4: herbicidal effect by soil treatment (Table 19, symbol O); format: in vivo, lambsquarters (Chenopodium album)
Outline: as §1

Italian ryegrass [7] = experiment: Test Example 5: herbicidal effect by foliage application, plastic box (Table 20, symbol K); format: in vivo, Italian ryegrass (Lolium multiflorum); conditions: foliage application
Outline: as §2

green foxtail [8] = experiment: Test Example 5: herbicidal effect by foliage application, plastic box (Table 20, symbol G); format: in vivo, green foxtail (Setaria viridis); conditions: foliage application
Outline: as §2

persian speedwell [9] = experiment: Test Example 4: herbicidal effect by soil treatment (Table 19, symbol R); format: in vivo, Persian speedwell (Veronica persica)
Outline: as §1

blackgrass [10] = experiment: Test Example 4: herbicidal effect by soil treatment (Table 19, symbol J); format: in vivo, blackgrass (Alopecurus myosuroides)
Outline: as §1

barnyard grass [11] = experiment: Test Example 4: herbicidal effect by soil treatment (Table 19, symbol H); format: in vivo, barnyard grass (Echinochloa crus-galli)
Outline: as §1

southern crabgrass [12] = experiment: Test Example 5: herbicidal effect by foliage application, plastic box (Table 20, symbol F); format: in vivo, southern crabgrass (Digitaria ciliaris); conditions: foliage application
Outline: as §2

chickweed [13] = experiment: Test Example 5: herbicidal effect by foliage application, plastic box (Table 20, symbol P); format: in vivo, common chickweed (Stellaria media); conditions: foliage application
Outline: as §2

Chinese sprangletop = experiment: Test Example 3: herbicidal effect by foliage application, Wagner pot (Table 18, symbol D); format: in vivo, chinese sprangletop (Leptochloa chinensis)
Outline: as §3

wild oat [14] = experiment: Test Example 4: herbicidal effect by soil treatment (Table 19, symbol I); format: in vivo, wild oat (Avena fatua)
Outline: as §1

chickweed [15] = experiment: Test Example 4: herbicidal effect by soil treatment (Table 19, symbol P); format: in vivo, common chickweed (Stellaria media)
Outline: as §1

redroot pigweed [16] = experiment: Test Example 5: herbicidal effect by foliage application, plastic box (Table 20, symbol N); format: in vivo, redroot pigweed (Amaranthus retroflexus); conditions: foliage application
Outline: as §2

windgrass [17] = experiment: Test Example 5: herbicidal effect by foliage application, plastic box (Table 20, symbol L); format: in vivo, windgrass (Apera spica-venti); conditions: foliage application
Outline: as §2

southern crabgrass [18] = experiment: Test Example 4: herbicidal effect by soil treatment (Table 19, symbol F); format: in vivo, southern crabgrass (Digitaria ciliaris)
Outline: as §1

barnyard grass [19] = experiment: Test Example 3: herbicidal effect by foliage application, Wagner pot (Table 18, symbol H); format: in vivo, barnyard grass (Echinochloa crus-galli)
Outline: as §3

barnyard grass [20] = experiment: Test Example 5: herbicidal effect by foliage application, plastic box (Table 20, symbol H); format: in vivo, barnyard grass (Echinochloa crus-galli); conditions: foliage application
Outline: as §2

persian speedwell [21] = experiment: Test Example 5: herbicidal effect by foliage application, plastic box (Table 20, symbol R); format: in vivo, Persian speedwell (Veronica persica); conditions: foliage application
Outline: as §2

wild oat [22] = experiment: Test Example 5: herbicidal effect by foliage application, plastic box (Table 20, symbol I); format: in vivo, wild oat (Avena fatua); conditions: foliage application
Outline: as §2

redroot pigweed [23] = experiment: Test Example 4: herbicidal effect by soil treatment (Table 19, symbol N); format: in vivo, redroot pigweed (Amaranthus retroflexus)
Outline: as §1

velvetleaf [24] = experiment: Test Example 4: herbicidal effect by soil treatment (Table 19, symbol M); format: in vivo, velvetleaf (Abutilon theophrasti)
Outline: as §1

velvetleaf [25] = experiment: Test Example 5: herbicidal effect by foliage application, plastic box (Table 20, symbol M); format: in vivo, velvetleaf (Abutilon theophrasti); conditions: foliage application
Outline: as §2

[26] = amount of applied herbicide 320 g/ha
[27] = 320 g/ha, three weeks after application
[28] = 96 g/ha, evaluated three weeks after application

SMILES: CCOc1ccc(-c2sc3ccccc3c2-c2c(O)c(C)nn(C)c2=O)cn1 [1-076]
- herbicidal effect rating, K: Italian ryegrass (Italian ryegrass [1]; [26]): 0 (Herbicidal rate of 5% or less (almost no effect))
- herbicidal effect rating, G: green foxtail (green foxtail [2]; [26]): 1 (Herbicidal rate of 5% or more and less than 20%)
- herbicidal effect grade, J: blackgrass (blackgrass [3]; [27]): 0 (Herbicidal rate of 5% or less (almost no effect))
- herbicidal effect on E (rice flat sedge), rating 0-5 (rice flat sedge): 5 (Herbicidal rate of 90% or more (almost completely withered))
- herbicidal effect rating, L: windgrass (windgrass [4]; [26]): 0 (Herbicidal rate of 5% or less (almost no effect))
- herbicidal effect grade, O: lambsquarters (lambsquarters [5]; [27]): 1 (Herbicidal rate of 5% or more and less than 20%)
- herbicidal effect rating, O: lambsquarters (lambsquarters [6]; [26]): 0 (Herbicidal rate of 5% or less (almost no effect))
- herbicidal effect grade, K: Italian ryegrass (Italian ryegrass [7]; [27]): 1 (Herbicidal rate of 5% or more and less than 20%)
- herbicidal effect grade, G: green foxtail (green foxtail [8]; [27]): 0 (Herbicidal rate of 5% or less (almost no effect))
- herbicidal effect rating, R: persian speedwell (persian speedwell [9]; [26]): 5 (Herbicidal rate of 90% or more (almost completely withered))
- herbicidal effect rating, J: blackgrass (blackgrass [10]; [26]): 0 (Herbicidal rate of 5% or less (almost no effect))
- herbicidal effect rating, H: barnyard grass (barnyard grass [11]; [26]): 0 (Herbicidal rate of 5% or less (almost no effect))
- herbicidal effect grade, F: southern crabgrass (southern crabgrass [12]; [27]): 0 (Herbicidal rate of 5% or less (almost no effect))
- herbicidal effect grade, P: chickweed (chickweed [13]; [27]): 5 (Herbicidal rate of 90% or more (almost completely withered))
- herbicidal effect on D (Chinese sprangletop), rating 0-5 (Chinese sprangletop; 320 g/ha): 0 (Herbicidal rate of 5% or less (almost no effect))
- herbicidal effect rating, I: wild oat (wild oat [14]; [26]): 0 (Herbicidal rate of 5% or less (almost no effect))
- herbicidal effect rating, P: chickweed (chickweed [15]; [26]): 5 (Herbicidal rate of 90% or more (almost completely withered))
- herbicidal effect grade, N: redroot pigweed (redroot pigweed [16]; [27]): 2 (Herbicidal rate of 20% or more and less than 40%)
- herbicidal effect grade, L: windgrass (windgrass [17]; [27]): 0 (Herbicidal rate of 5% or less (almost no effect))
- herbicidal effect rating, F: southern crabgrass (southern crabgrass [18]; [26]): 0 (Herbicidal rate of 5% or less (almost no effect))
- herbicidal effect on H (barnyard grass), rating 0-5 (barnyard grass [19]; 320 g/ha): 1 (Herbicidal rate of 5% or more and less than 20%)
- herbicidal effect grade, H: barnyard grass (barnyard grass [20]; [27]): 0 (Herbicidal rate of 5% or less (almost no effect))
- herbicidal effect grade, R: persian speedwell (persian speedwell [21]; [27]): 5 (Herbicidal rate of 90% or more (almost completely withered))
- herbicidal effect grade, I: wild oat (wild oat [22]; [27]): 0 (Herbicidal rate of 5% or less (almost no effect))
- herbicidal effect rating, N: redroot pigweed (redroot pigweed [23]; [26]): 0 (Herbicidal rate of 5% or less (almost no effect))
- herbicidal effect rating, M: velvetleaf (velvetleaf [24]; [26]): 0 (Herbicidal rate of 5% or less (almost no effect))
- herbicidal effect grade, M: velvetleaf (velvetleaf [25]; [27]): 3 (Herbicidal rate of 40% or more and less than 70%)

SMILES: Cc1nn(C)c(=O)c(-c2c(-c3ccccc3)sc3ccc(Cl)cc23)c1O [2-094]
- herbicidal effect rating, K: Italian ryegrass (Italian ryegrass [1]; 96 g/ha): 0 (Herbicidal rate of 5% or less (almost no effect))
- herbicidal effect rating, G: green foxtail (green foxtail [2]; 96 g/ha): 0 (Herbicidal rate of 5% or less (almost no effect))
- herbicidal effect on J: blackgrass (blackgrass [3]; [28]): 0 (Herbicidal rate of 5% or less (almost no effect))
- herbicidal effect rating, L: windgrass (windgrass [4]; 96 g/ha): 0 (Herbicidal rate of 5% or less (almost no effect))
- herbicidal effect on O: lambsquarters (lambsquarters [5]; [28]): 2 (Herbicidal rate of 20% or more and less than 40%)
- herbicidal effect rating, O: lambsquarters (lambsquarters [6]; 96 g/ha): 3 (Herbicidal rate of 40% or more and less than 70%)
- herbicidal effect on K: Italian ryegrass (Italian ryegrass [7]; [28]): 2 (Herbicidal rate of 20% or more and less than 40%)
- herbicidal effect on G: green foxtail (green foxtail [8]; [28]): 0 (Herbicidal rate of 5% or less (almost no effect))
- herbicidal effect rating, R: persian speedwell (persian speedwell [9]; 96 g/ha): 0 (Herbicidal rate of 5% or less (almost no effect))
- herbicidal effect rating, J: blackgrass (blackgrass [10]; 96 g/ha): 0 (Herbicidal rate of 5% or less (almost no effect))
- herbicidal effect rating, H: barnyard grass (barnyard grass [11]; 96 g/ha): 0 (Herbicidal rate of 5% or less (almost no effect))
- herbicidal effect on F: southern crabgrass (southern crabgrass [12]; [28]): 0 (Herbicidal rate of 5% or less (almost no effect))
- herbicidal effect on P: chickweed (chickweed [13]; [28]): 5 (Herbicidal rate of 90% or more (almost completely withered))
- herbicidal effect on D (Chinese sprangletop), rating 0-5 (Chinese sprangletop; 96 g/ha): 0 (Herbicidal rate of 5% or less (almost no effect))
- herbicidal effect rating, I: wild oat (wild oat [14]; 96 g/ha): 0 (Herbicidal rate of 5% or less (almost no effect))
- herbicidal effect rating, P: chickweed (chickweed [15]; 96 g/ha): 0 (Herbicidal rate of 5% or less (almost no effect))
- herbicidal effect on N: redroot pigweed (redroot pigweed [16]; [28]): 3 (Herbicidal rate of 40% or more and less than 70%)
- herbicidal effect on L: windgrass (windgrass [17]; [28]): 0 (Herbicidal rate of 5% or less (almost no effect))
- herbicidal effect rating, F: southern crabgrass (southern crabgrass [18]; 96 g/ha): 0 (Herbicidal rate of 5% or less (almost no effect))
- herbicidal effect on H (barnyard grass), rating 0-5 (barnyard grass [19]; 96 g/ha): 2 (Herbicidal rate of 20% or more and less than 40%)
- herbicidal effect on H: barnyard grass (barnyard grass [20]; [28]): 0 (Herbicidal rate of 5% or less (almost no effect))
- herbicidal effect on R: persian speedwell (persian speedwell [21]; [28]): 1 (Herbicidal rate of 5% or more and less than 20%)
- herbicidal effect on I: wild oat (wild oat [22]; [28]): 0 (Herbicidal rate of 5% or less (almost no effect))
- herbicidal effect rating, N: redroot pigweed (redroot pigweed [23]; 96 g/ha): 5 (Herbicidal rate of 90% or more (almost completely withered))
- herbicidal effect rating, M: velvetleaf (velvetleaf [24]; 96 g/ha): 0 (Herbicidal rate of 5% or less (almost no effect))
- herbicidal effect on M: velvetleaf (velvetleaf [25]; [28]): 3 (Herbicidal rate of 40% or more and less than 70%)
